Laboratory results taken from patent US8026219B2, “Antimicrobial linear peptides” (Universitat de Girona, priority 2006, dated 2011).
Residues, ends and D or L forms follow the SMILES beside them. No end group written: not given here. *: point of attachment. Tos = Cc1ccc(S(=O)(=O)*)cc1; Bz = O=C(c1ccccc1)*

Assays:
[1] = tested on: Xanthomonas vesicatori 2133-2; test: Minimum inhibitory concentration (MIC), microbial growth by optical density; details: 48 h incubation at 25° C., TSB medium
[2] = tested on: Erwinia amylovora PMV6076; test: as above; format: cell-based; details: 48 h incubation at 25° C., TSB medium
Description: (§1) Each experiment was performed twice.

[3] = tested on: Pseudomonas syringae EPS94; test: as above; format: cell-based; details: 48 h incubation at 25° C., TSB medium
Description: as §1

[4] = tested on: erythrocytes from fresh human blood; details: 5% erythrocytes, 1 h at 37° C., relative to 200 μM melittin; for % Haemolysis 50 μM: 50 μM peptide; for % Haemolysis 150 μM: 150 μM peptide; for % Haemolysis 250 μM: 250 μM peptide
Description: A description of the methodology used to determine the haemolytic activity is found in Oren et al, Biochemistry, 2000, 39, 6103-6114, and in Raguse et al., J. Am. Chem. Soc., 2002, 124, 12774-12785.
The haemolytic activity of the peptides of the invention was evaluated by determining the release of haemoglobin which is produced on placing in contact a solution of the peptides with a suspension of erythrocytes 5% by volume, from fresh human blood.
The blood was collected aseptically using a Vactainer® K2E system (Belliver, Great Britain) with EDTA and it was stored at 4° C. for a period lower than 2 hours.
The blood was centrifuged at 6000 g for 5 minutes to separate the erythrocytes. There were washed three times with TRIS buffer (10 mM TRIS, 150 mM NaCl, pH 7.2) and they were resuspended in TRIS buffer until obtaining a suspension which contained 10% by volume of erythrocytes.
The peptides were solubilized in TRIS buffer until a final concentration of 100, 300 and 500 μM
The replicas were used for each peptide and concentration.
65 μl of 10% erythrocyte suspension was mixed with 65 μl of the peptide solution in each well of a 96-well plate (Micro-Amp®, Applied Biosystems, USA) (5% by volume of erythrocytes) and the mixture was incubated for 1 h at 37° C. under stirring. In this way, the erythrocyte suspensions were subjected to peptide concentrations of 50, 150 and 250 μM.
Next, the plates were centrifuged at 3500 g during 10 minutes and aliquots were transferred of 80 μl of supernatant to microplates with 100 wells (Bioscreen), which were diluted with 80 μl of milli-Q water.
The degree of haemolysis was determined from the absorbance at 540 nm with a Bioscreen plate reader.
The complete positive haemolysis control was determined in a TRIS buffer solution which contained 200 μM melittin (Sigma-Aldrich, Spain)
The percentage of haemolysis (H) was determined using the following equation: H=100×[Op−Ob)/(Om−Ob)]
Where OP as the optical density measured for a determined peptide concentration, Ob was the optical density of the buffer solution, and Om was the optical density for the positive control with melittin.

CC[C@H](C)[C@H](NC(=O)[C@H](CCCCN)NC(=O)[C@H](CCCCN)NC(=O)[C@H](Cc1ccccc1)NC(=O)[C@H](CC(C)C)NC(=O)[C@H](CCCCN)NC(=O)[C@H](CCCCN)NC(=O)c1ccccc1)C(=O)N[C@@H](CC(C)C)C(=O)N[C@@H](CCCCN)C(=O)N[C@@H](Cc1c[nH]c2ccccc12)C(=O)N[C@@H](CC(C)C)C(N)=O [BP055] (Bz-KKLFKKILKWL-NH2)
range of concentrations including the MIC, X. vesicatoria [1]: <2.5 µM | range of concentrations including the MIC, E. amylovora [2]: >7.5 µM | range of concentrations including the MIC, P. syringae [3]: >7.5 µM

CC[C@H](C)[C@H](NC(=O)[C@H](CCCCN)NC(=O)[C@H](CCCCN)NC(=O)[C@H](Cc1ccccc1)NC(=O)[C@H](CC(C)C)NC(=O)[C@H](CCCCN)NC(=O)[C@H](CCCCN)NS(=O)(=O)c1ccc(C)cc1)C(=O)N[C@@H](CC(C)C)C(=O)N[C@@H](CCCCN)C(=O)N[C@@H](Cc1ccccc1)C(=O)N[C@@H](CC(C)C)C(N)=O [BP078]
% Haemolysis 50 μM [4]: 40% | % Haemolysis 150 μM [4]: 85% | % Haemolysis 250 μM [4]: 95% | range of concentrations including the MIC, X. vesicatoria [1]: <2.5 µM | range of concentrations including the MIC, E. amylovora [2]: 5 to 7.5 µM | range of concentrations including the MIC, P. syringae [3]: 5 to 7.5 µM

CC[C@H](C)[C@H](NC(=O)[C@H](CCCCN)NC(=O)[C@H](CCCCN)NC(=O)[C@H](Cc1ccccc1)NC(=O)[C@H](CC(C)C)NC(=O)[C@H](CCCCN)NC(=O)[C@H](CCCCN)NS(=O)(=O)c1ccc(C)cc1)C(=O)N[C@@H](CC(C)C)C(=O)N[C@@H](CCCCN)C(=O)N[C@@H](Cc1c[nH]c2ccccc12)C(=O)N[C@@H](CC(C)C)C(N)=O [BP054] (Tos-KKLFKKILKWL-NH2)
range of concentrations including the MIC, X. vesicatoria [1]: <2.5 µM | range of concentrations including the MIC, E. amylovora [2]: >7.5 µM | range of concentrations including the MIC, P. syringae [3]: 5 to 7.5 µM

CC[C@H](C)[C@H](NC(=O)[C@H](CCCCN)NC(=O)[C@H](CCCCN)NC(=O)[C@H](Cc1ccccc1)NC(=O)[C@H](CC(C)C)NC(=O)[C@H](CCCCN)NC(=O)[C@@H](N)CC(C)C)C(=O)N[C@@H](CC(C)C)C(=O)N[C@@H](CCCCN)C(=O)N[C@@H](Cc1ccc(O)cc1)C(=O)N[C@@H](CC(C)C)C(N)=O [BP105]
% Haemolysis 50 μM [4]: 14% | % Haemolysis 150 μM [4]: 91% | % Haemolysis 250 μM [4]: 90% | range of concentrations including the MIC, X. vesicatoria [1]: 2.5 to 5 µM | range of concentrations including the MIC, E. amylovora [2]: 5 µM | range of concentrations including the MIC, P. syringae [3]: 5 to 7.5 µM

YKLFKKILKWL-NH2 [BP047]
% Haemolysis 50 μM [4]: 81% | % Haemolysis 150 μM [4]: 76% | % Haemolysis 250 μM [4]: 82% | range of concentrations including the MIC, X. vesicatoria [1]: 2.5 to 5 µM | range of concentrations including the MIC, E. amylovora [2]: 5 to 7.5 µM | range of concentrations including the MIC, P. syringae [3]: 5 to 7.5 µM

YKLFKKILKKL-NH2 [BP119]
% Haemolysis 50 μM [4]: 4% | % Haemolysis 150 μM [4]: 19% | % Haemolysis 250 μM [4]: 45%

Ac-KKLFKKILKVL-NH2 [BP029]
range of concentrations including the MIC, X. vesicatoria [1]: 7.5 µM | range of concentrations including the MIC, E. amylovora [2]: 5 to 7.5 µM | range of concentrations including the MIC, P. syringae [3]: 5 to 7.5 µM

CC[C@H](C)[C@H](NC(=O)[C@H](CCCCN)NC(=O)[C@H](CCCCN)NC(=O)[C@H](Cc1ccccc1)NC(=O)[C@H](CC(C)C)NC(=O)[C@H](CCCCN)NC(=O)[C@H](CC(C)C)NS(=O)(=O)c1ccc(C)cc1)C(=O)N[C@@H](CC(C)C)C(=O)N[C@@H](CCCCN)C(=O)N[C@@H](Cc1c[nH]c2ccccc12)C(=O)N[C@@H](CC(C)C)C(N)=O [BP059] (Tos-LKLFKKILKWL-NH2)
range of concentrations including the MIC, X. vesicatoria [1]: 2.5 µM | range of concentrations including the MIC, E. amylovora [2]: >7.5 µM | range of concentrations including the MIC, P. syringae [3]: >7.5 µM

CC[C@H](C)[C@H](NC(=O)[C@H](CCCCN)NC(=O)[C@H](CCCCN)NC(=O)[C@H](Cc1ccccc1)NC(=O)[C@H](CC(C)C)NC(=O)[C@H](CCCCN)NC(=O)[C@@H](N)CCCCN)C(=O)N[C@@H](CC(C)C)C(=O)N[C@@H](CCCCN)C(=O)N[C@@H](Cc1c[nH]c2ccccc12)C(=O)N[C@@H](CC(C)C)C(N)=O [BP017]
range of concentrations including the MIC, X. vesicatoria [1]: 5 to 7.5 µM | range of concentrations including the MIC, E. amylovora [2]: >7.5 µM | range of concentrations including the MIC, P. syringae [3]: 5 to 7.5 µM
